{"source": "patent US20090061022A1", "about": "“Pharmaceutical composition comprising arsenite for the treatment of malignancy” (priority 2004, published 2009)", "assay_type_in_all_cases": "cell-based", "key": {"[1]": {"system": "panel of 9 human cancer cell lines", "assay": "Cytotoxic activity, whole panel of 9 human cancer cell lines (means, active/total)", "conditions": "for Active/Total cancer cell lines / Active/Total cancer cell lines, percent: active = T/C<30", "method": "(§1) Three kinds of stock solutions were prepared for in vitro cytotoxic activity test. The first solution is DMSO (dimethyl sulfoxide) mixed with sodium meta-arsenite. […] The third solution is DMSO mixed with arsenic acid sodium salt. Those three solutions were diluted with culture medium (RPMI 1640). The final concentrations of DMSO in those three solutions are less than 0.3 vol %.\n(§2) Nine kinds of human cancer cell lines out of six kinds of cancers were grown at 37° C. under a controlled atmosphere of 95% air and 5% CO2. The cells were grown on monolayer cultures of RPMI 1640 cell culture medium supplemented with 10% fetal calf serum.\n(§3) The grown cells were harvested from exponential phase cultures by trypsinization and counted. The counted cells were placed in a plate, which has ninety six wells. Each well on the plate is in a shape of a flat-bottomed microtitre. Density of the cells in a suspension was adjusted depending on the cell line. The suspension was prepared by diluting the grown cells with the culture medium (RPMI 1640). […] Then add 50 μl of culture medium (RPMI 1640) only to 6 wells, 50 μl/well, among the 96 wells of one plate. It is called controlled. One well is filled with culture medium plus 5-FU. And another 50 μl of culture medium plus one of the stock solutions were added to each of the left 89 wells to allow cells to resume exponential growth.\n(§4) The cytotoxic activity test was executed with three plates simultaneously to check reliability of the data obtained. The three plates contain the same samples of cancer cells. The three plates were then incubated for 3-7 days under the same controlled atmosphere and cell proliferation was assessed with a modified propodium iodide fluorescence assay. After thawing of the plates, fluorescence was measured using a Millipore Cytofluor 2350-microplate reader (excitation 530 nm emission 620 nm) in order to quantify the total cell number. The assay included untreated and positive controls containing 5-FU.\n(§5) Growth inhibition is defined as (numbers of cancer cell alive) treated (T)/(number of cells) control (C)×100% (T/C %)."}, "LXFL 529L": {"system": "LXFL 529L", "assay": "Cytotoxic activity, propidium iodide fluorescence assay, panel of 9 human cancer cell lines", "conditions": "LXFL 529L NSCLC, 3-7 days", "method": "as §1, §2\nas §3, with “1640). Concentration of the cells were varied from 5×10^4 to 1×10^5 viable cells/ml. 100 μl of the suspension was placed in each well of the plate.” for “1640).”\nas §4, §5"}, "K562": {"system": "K562", "assay": "Cytotoxic activity, propidium iodide fluorescence assay, panel of 9 human cancer cell lines", "conditions": "K562 leukemia, 3-7 days", "method": "as §1, §2\nas §3, with “1640). Concentration of the cells were varied from 5×10^4 to 1×10^5 viable cells/ml. 100 μl of the suspension was placed in each well of the plate.” for “1640).”\nas §4, §5"}, "HT29": {"system": "HT29", "assay": "Cytotoxic activity, propidium iodide fluorescence assay, panel of 9 human cancer cell lines", "conditions": "HT29 colon cancer, 3-7 days", "method": "as §1, §2\nas §3, with “1640). Concentration of the cells were varied from 5×10^4 to 1×10^5 viable cells/ml. 100 μl of the suspension was placed in each well of the plate.” for “1640).”\nas §4, §5"}, "MEXF 462NL": {"system": "MEXF 462NL", "assay": "Cytotoxic activity, propidium iodide fluorescence assay, panel of 9 human cancer cell lines", "conditions": "MEXF 462NL melanoma, 3-7 days", "method": "as §1, §2\nas §3, with “1640). Concentration of the cells were varied from 5×10^4 to 1×10^5 viable cells/ml. 100 μl of the suspension was placed in each well of the plate.” for “1640).”\nas §4, §5"}, "RXF 944L": {"system": "RXF 944L", "assay": "Cytotoxic activity, propidium iodide fluorescence assay, panel of 9 human cancer cell lines", "conditions": "RXF 944L renal cancer, 3-7 days", "method": "as §1, §2\nas §3, with “1640). Concentration of the cells were varied from 5×10^4 to 1×10^5 viable cells/ml. 100 μl of the suspension was placed in each well of the plate.” for “1640).”\nas §4, §5"}, "UXF 1138": {"system": "UXF 1138", "assay": "Cytotoxic activity, propidium iodide fluorescence assay, panel of 9 human cancer cell lines", "conditions": "UXF 1138 uterine body, 3-7 days", "method": "as §1, §2\nas §3, with “1640). Concentration of the cells were varied from 5×10^4 to 1×10^5 viable cells/ml. 100 μl of the suspension was placed in each well of the plate.” for “1640).”\nas §4, §5"}, "MEXF 514L": {"system": "MEXF 514L", "assay": "Cytotoxic activity, propidium iodide fluorescence assay, panel of 9 human cancer cell lines", "conditions": "MEXF 514L melanoma, 3-7 days", "method": "as §1, §2\nas §3, with “1640). Concentration of the cells were varied from 5×10^4 to 1×10^5 viable cells/ml. 100 μl of the suspension was placed in each well of the plate.” for “1640).”\nas §4, §5"}, "CCRF-CEM": {"system": "CCRF-CEM", "assay": "Cytotoxic activity, propidium iodide fluorescence assay, panel of 9 human cancer cell lines", "conditions": "CCRF-CEM leukemia, 3-7 days", "method": "as §1, §2\nas §3, with “1640). Concentration of the cells were varied from 5×10^4 to 1×10^5 viable cells/ml. 100 μl of the suspension was placed in each well of the plate.” for “1640).”\nas §4, §5"}, "U937": {"system": "U937", "assay": "Cytotoxic activity, propidium iodide fluorescence assay, panel of 9 human cancer cell lines", "conditions": "U937 lymphoma, 3-7 days", "method": "as §1, §2\nas §3, with “1640). Concentration of the cells were varied from 5×10^4 to 1×10^5 viable cells/ml. 100 μl of the suspension was placed in each well of the plate.” for “1640).”\nas §4, §5"}, "[2]": {"conditions": "mean over human cancer cell lines tested (9 line panel)"}}, "note": "“And” between values parts separate entries of the source, which are not always exact repeats. Identical values can stand only once."}
{"smiles": "O=[As][O-].[Na+]", "note": "[Sodium meta-arsenite, sodium meta-arsenite]", "values": [{"measurement": "Active/Total cancer cell lines", "setting": "[1]; 1 μg/ml", "value": "1/9"}, {"measurement": "Active/Total cancer cell lines, percent", "setting": "[1]; 1 μg/ml", "value": 11, "unit": "%"}, {"measurement": "Active/Total cancer cell lines", "setting": "[1]; 3 μg/ml", "value": "2/8"}, {"measurement": "Active/Total cancer cell lines, percent", "setting": "[1]; 3 μg/ml", "value": 25, "unit": "%"}, {"measurement": "Active/Total cancer cell lines", "setting": "[1]; 10 μg/ml", "value": "3/9"}, {"measurement": "Active/Total cancer cell lines, percent", "setting": "[1]; 10 μg/ml", "value": 33, "unit": "%"}, {"measurement": "Active/Total cancer cell lines", "setting": "[1]; 30 μg/ml", "value": "4/8"}, {"measurement": "Active/Total cancer cell lines, percent", "setting": "[1]; 30 μg/ml", "value": 50, "unit": "%"}, {"measurement": "Active/Total cancer cell lines, percent", "setting": "[1]; 100 μg/ml", "value": 89, "unit": "%"}, {"measurement": "Assessment from comparison of the IC50 values", "setting": "[1]; 9 cell line panel", "value": "most potent compound of the series"}, {"measurement": "IC50", "setting": "[1]; [2]", "value": 56, "unit": "µM"}, {"measurement": "IC90", "setting": "[1]; [2]", "value": 490, "unit": "µM"}, {"measurement": "Mean IC50", "setting": "[1]; [2]", "value": 7.3, "unit": "µg/mL"}, {"measurement": "Mean IC70", "setting": "[1]; [2]", "value": "19.8 μg/ml and 152 μM"}, {"measurement": "Mean IC90", "setting": "[1]; [2]", "value": 63.7, "unit": "µg/mL"}, {"measurement": "T/C % at drug concentration", "setting": "LXFL 529L; 1 μg/ml", "value": 79, "unit": "%"}, {"measurement": "T/C % at drug concentration", "setting": "LXFL 529L; 3 μg/ml", "value": 61, "unit": "%"}, {"measurement": "T/C % at drug concentration", "setting": "LXFL 529L; 10 μg/ml", "value": 21, "unit": "%"}, {"measurement": "T/C % at drug concentration", "setting": "LXFL 529L; 30 μg/ml", "value": 7, "unit": "%"}, {"measurement": "T/C % at drug concentration", "setting": "LXFL 529L; 100 μg/ml", "value": 4, "unit": "%"}, {"measurement": "T/C % at drug concentration", "setting": "K562; 1 μg/ml", "value": 51, "unit": "%"}, {"measurement": "T/C % at drug concentration", "setting": "K562; 3 μg/ml", "value": 15, "unit": "%"}, {"measurement": "T/C % at drug concentration", "setting": "K562; 10 μg/ml", "value": 15, "unit": "%"}, {"measurement": "T/C % at drug concentration", "setting": "K562; 30 μg/ml", "value": 18, "unit": "%"}, {"measurement": "T/C % at drug concentration", "setting": "K562; 100 μg/ml", "value": 13, "unit": "%"}, {"measurement": "T/C % at drug concentration", "setting": "HT29; 1 μg/ml", "value": 91, "unit": "%"}, {"measurement": "T/C % at drug concentration", "setting": "HT29; 3 μg/ml", "value": 60, "unit": "%"}, {"measurement": "T/C % at drug concentration", "setting": "HT29; 10 μg/ml", "value": 40, "unit": "%"}, {"measurement": "T/C % at drug concentration", "setting": "HT29; 30 μg/ml", "value": 22, "unit": "%"}, {"measurement": "T/C % at drug concentration", "setting": "HT29; 100 μg/ml", "value": 14, "unit": "%"}, {"measurement": "T/C % at drug concentration", "setting": "MEXF 462NL; 1 μg/ml", "value": 112, "unit": "%"}, {"measurement": "T/C % at drug concentration", "setting": "MEXF 462NL; 3 μg/ml", "value": 120, "unit": "%"}, {"measurement": "T/C % at drug concentration", "setting": "MEXF 462NL; 10 μg/ml", "value": 101, "unit": "%"}, {"measurement": "T/C % at drug concentration", "setting": "MEXF 462NL; 30 μg/ml", "value": 91, "unit": "%"}, {"measurement": "T/C % at drug concentration", "setting": "MEXF 462NL; 100 μg/ml", "value": 15, "unit": "%"}, {"measurement": "T/C % at drug concentration", "setting": "RXF 944L; 1 μg/ml", "value": 124, "unit": "%"}, {"measurement": "T/C % at drug concentration", "setting": "RXF 944L; 3 μg/ml", "value": 79, "unit": "%"}, {"measurement": "T/C % at drug concentration", "setting": "RXF 944L; 10 μg/ml", "value": 57, "unit": "%"}, {"measurement": "T/C % at drug concentration", "setting": "RXF 944L; 30 μg/ml", "value": 32, "unit": "%"}, {"measurement": "T/C % at drug concentration", "setting": "RXF 944L; 100 μg/ml", "value": 9, "unit": "%"}, {"measurement": "T/C % at drug concentration", "setting": "UXF 1138; 1 μg/ml", "value": 107, "unit": "%"}, {"measurement": "T/C % at drug concentration", "setting": "UXF 1138; 3 μg/ml", "value": 114, "unit": "%"}, {"measurement": "T/C % at drug concentration", "setting": "UXF 1138; 10 μg/ml", "value": 103, "unit": "%"}, {"measurement": "T/C % at drug concentration", "setting": "UXF 1138; 30 μg/ml", "value": 95, "unit": "%"}, {"measurement": "T/C % at drug concentration", "setting": "UXF 1138; 100 μg/ml", "value": 30, "unit": "%"}, {"measurement": "T/C % at drug concentration", "setting": "MEXF 514L; 1 μg/ml", "value": 120, "unit": "%"}, {"measurement": "T/C % at drug concentration", "setting": "MEXF 514L; 3 μg/ml", "value": 95, "unit": "%"}, {"measurement": "T/C % at drug concentration", "setting": "MEXF 514L; 10 μg/ml", "value": 98, "unit": "%"}, {"measurement": "T/C % at drug concentration", "setting": "MEXF 514L; 30 μg/ml", "value": 70, "unit": "%"}, {"measurement": "T/C % at drug concentration", "setting": "MEXF 514L; 100 μg/ml", "value": 21, "unit": "%"}, {"measurement": "T/C % at drug concentration", "setting": "CCRF-CEM; 1 μg/ml", "value": 48, "unit": "%"}, {"measurement": "T/C % at drug concentration", "setting": "CCRF-CEM; 10 μg/ml", "value": 43, "unit": "%"}, {"measurement": "T/C % at drug concentration", "setting": "CCRF-CEM; 100 μg/ml", "value": 29, "unit": "%"}, {"measurement": "T/C % at drug concentration", "setting": "U937; 1 μg/ml", "value": 3, "unit": "%"}, {"measurement": "T/C % at drug concentration", "setting": "U937; 3 μg/ml", "value": 3, "unit": "%"}, {"measurement": "T/C % at drug concentration", "setting": "U937; 10 μg/ml", "value": 2, "unit": "%"}, {"measurement": "T/C % at drug concentration", "setting": "U937; 30 μg/ml", "value": 2, "unit": "%"}, {"measurement": "T/C % at drug concentration", "setting": "U937; 100 μg/ml", "value": 1, "unit": "%"}]}
